Source: patent publication US8318207B2, “Encapsulation and controlled release of small molecules for intracellular delivery using thermally responsive nanocapsules” (University of South Carolina, priority 2009, dated 2012)

Key:
[1] = system: NIH 3T3 fibroblasts; assay: Long-term (3-day) cell proliferation; format: cell-based; details: 0.22 M extracellular trehalose, 40 min incubation (0.5 mg/ml nanocapsules where present)
Procedure: For long-term cell proliferation studies, cells were seeded in 33 mm Petri dishes at a relatively low density of 1×10^5 cells/dish in 1 ml medium. At 24 h, the cells were exposed to nanocapsules in the same way as that described above for immediate cell viability studies. After cold shock, the cells were further cultured for 3 days to monitor their proliferation (long-term toxicity). This was done by taking at least 10 representative images of the samples every day including the day (taken as day 0) when the cells were exposed to nanocapsules. The total number of cells in each image were counted automatically using NIH ImageJ. […] The collagen production of cells exposed to 0 M trehalose and 0 mg/ml nanocapsules (control), 0.22 M extracellular trehalose and 0 mg/ml nanocapsules (trehalose without NE), and 0.22 M extracellular trehalose and 0.5 mg/ml extracellular nanocapsules (nanoencapsulated with trehalose) was quantified using the Sircol™ Assay kit (Biocolor, Belfast, N. Ireland). […] The absorbance at 540 nm wavelength of the dye was then measured using a BioTek Synergy 2 microplate reader (Winooski, Vt.). Collagen concentration in the collected medium was quantified by comparing its absorbance subtracted with the absorbance of the blank sample with that of the standards.

[2] = Nanoencapsulation and controlled release of trehalose (dialysis, trehalose assay kit); format: physicochemical
Procedure: The resultant freeze-dried mixture of extra-capsular trehalose and trehalose-loaded nanocapsules was either used immediately or stored at −20° C. for future use.
To determine whether trehalose can be withheld in the nanocapsule at 37° C. for controlled release, the freeze-dried mixture of trehalose and trehalose-loaded nanocapsules was preheated to 37° C. and dissolved in 2 ml warm water at 37° C. in a 15 ml centrifuge tube. The final overall trehalose (i.e., trehalose both inside and outside the nanocapsules) concentration in the solution was 15% (w/v) and the corresponding nanocapsule (excluding the encapsulated trehalose) concentration was 10 mg/ml. Therefore, the total amount of trehalose and nanocapsules (excluding the encapsulated trehalose) in the 2 ml solution was 0.3 and 0.02 g, respectively. The solution in the centrifuge tube was then transferred either after cooling at 22° C. (i.e., cold shocking) for 15 min or immediately into a Spectra/Por dialysis bag (MWCO, 50 kDa) and placed in a beaker containing 1 L of deionized water kept warm at 37° C. with constant stirring using a hotplate/stirrer for 5 hr. It is expected that the 15 min cooling at 22° C. followed by heating at 37° C. in the beaker should result in a quick release of nanoencapsulated trehalose as a result of the more than 15 times of volume expansion and contraction in response to the temperature variation. Control experiments were performed similarly except that 2 ml of 15% (w/v) pure trehalose solution (i.e., in the absence of nanocapsules) was used in the dialysis tube. […] Trehalose concentration in the 0.5 ml samples was determined using a trehalose assay kit (Megazyme Co., Wicklow, Ireland) by following the manufacturer's instructions. […] The absorbance at 340 nm of NADPH was then measured using a Shimazu (Columbia, Md.) UV-2101PC spectrophotometer to determine the amount of trehalose in the original sample.

[3] = system: 3T3 fibroblasts; assay: Nanocapsule assisted intracellular delivery of trehalose; format: cell-based; details: extracellular trehalose 0.165 M (nanocapsule 0.375 mg/ml where present), 40 min at 37° C.
Procedure: The procedures performed for cellular uptake of the trehalose loaded nanocapsules was the same as that described in section 2.6 for the uptake of empty nanocapsules. […] The cells were then detached/lysed in deionized water with the aid of a cell scraper. The cells were further lysed using three cycles of freezing and thawing in liquid nitrogen and 37° C. water bath, respectively. The lysed cell suspension was homogenized for 10 min by sonication using a Branson ultrasonic cleaner (Danbury, Conn.) followed by a brief vortex-mixing. After centrifuging at 10,000 g for 10 min, the supernatant of each sample was divided into two aliquots. One aliquot was used to determine trehalose concentration in the sample using the trehalose assay kit (Megazyme Co. Wicklow, Ireland) as described in the previous section. […] The other aliquot was used to determine cell density in the sample based on its DNA content measured using a method described in Dunn et. al, Long-term in vitro function of adult hepatocytes in a collagen sandwich configuration, Biotechnol Prog 1991 May-Jun;7(3):237-245. […] With the trehalose concentration and cell density in the sample being measured, the total amount of intracellular trehalose and the total number of cells (and thus the total osmotically active cell volume) can be calculated. Therefore, the intracellular trehalose concentration can be determined.

[4] = system: 3T3 fibroblasts; assay: Collagen production, Sircol assay; format: cell-based; details: 0.22 M extracellular trehalose, 40 min incubation (0.5 mg/ml nanocapsules where present)
Procedure: The immediate cell viability, proliferation, and collagen production of 3T3 cells exposed to 0.22 M extracellular trehalose and 0.5 mg/ml nanocapsules (loaded with trehalose) (As will be shown later in Results and Discussion that the intracellular trehalose is ˜0.3 M under this loading condition) were further studied to test the effectiveness of the nanocapsule based approach for intracellular delivery of trehalose. Immediate cell viability and proliferation of the 3T3 cells after loading with trehalose were studied in the same way as that described for 3T3 cells loaded with empty nanocapsules in section 2.6. The collagen production of cells exposed to 0 M trehalose and 0 mg/ml nanocapsules (control), 0.22 M extracellular trehalose and 0 mg/ml nanocapsules (trehalose without NE), and 0.22 M extracellular trehalose and 0.5 mg/ml extracellular nanocapsules (nanoencapsulated with trehalose) was quantified using the Sircol™ Assay kit (Biocolor, Belfast, N. Ireland). To do this, the cells treated under the three conditions were further cultured for 3 days. […] The absorbance at 540 nm wavelength of the dye was then measured using a BioTek Synergy 2 microplate reader (Winooski, Vt.). Collagen concentration in the collected medium was quantified by comparing its absorbance subtracted with the absorbance of the blank sample with that of the standards.

## OC[C@H]1O[C@H](O[C@H]2O[C@H](CO)[C@@H](O)[C@H](O)[C@H]2O)[C@H](O)[C@@H](O)[C@@H]1O [Trehalose w/o NE, α,α-trehalose]
[1]
  3 day cell proliferation vs control: No significant differences
[2]; 2 ml of 15% (w/v) into 1 L deionized water at 37° C.
  time for trehalose release from the dialysis bag to reach equilibrium: approximately 2 hours
[2]; after one hour, 37° C.
  trehalose released from the dialysis tube: more than 80%
[2]; at 2 hr, 37° C., no cold shock
  trehalose concentration in the 1 L solution outside the dialysis tube: 0.3 g/L
[3]
  intracellular trehalose concentration: 0.02 M
[4]
  3 day collagen production vs control: No significant differences
